Laboratory results: patent publication US12122761B2, “2-azaspiro[3.4]octane derivatives as M4 agonists” (NOVARTIS AG, priority 2019, dated 2024)

Legend:
[1] = target: T1, human cloned CHRM2 receptor (M2_CHO cells) (Homo sapiens, UniProt P08172); test: CHRM2 Ca++ Flux Assay (agonist mode, FDSS 7000EX); format: cell-based; settings: for M2 FDSS PA: Percent Activity measured to EC100 of Carbachol; for EC50: agonist mode, geometric mean if tested more than once, read-out: M2 FDSS EC50
T1 construct: expressed in transfected cells; host or cells: CHO-K1
T1 sequence (P08172 1-466): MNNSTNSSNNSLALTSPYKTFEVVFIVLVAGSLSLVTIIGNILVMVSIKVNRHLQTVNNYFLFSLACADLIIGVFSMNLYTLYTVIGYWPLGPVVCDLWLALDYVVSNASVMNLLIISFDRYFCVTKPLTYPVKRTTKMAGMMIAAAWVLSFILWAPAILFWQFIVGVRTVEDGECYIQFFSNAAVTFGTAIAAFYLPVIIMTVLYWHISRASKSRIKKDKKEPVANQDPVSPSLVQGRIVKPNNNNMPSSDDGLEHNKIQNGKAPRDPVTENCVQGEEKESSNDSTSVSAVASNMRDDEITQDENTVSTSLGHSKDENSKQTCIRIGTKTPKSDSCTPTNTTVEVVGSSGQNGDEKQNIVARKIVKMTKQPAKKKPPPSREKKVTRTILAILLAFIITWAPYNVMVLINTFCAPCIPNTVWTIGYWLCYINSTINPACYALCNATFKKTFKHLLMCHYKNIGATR
How it was run: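 Response expressed as percent activity versus the Carbachol EC100, with curves fitted by four-parameter non-linear regression of triplicates. Stable M2_CHO cells were Ca++ dye-loaded and preincubated 60 min at room temperature in assay buffer containing 20 μM ATP; signal imaged for 3 minutes after compound.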

[2] = target: T2, human cloned CHRM5 receptor (M5_CHO) (Homo sapiens, UniProt P08912); test: CHRM5 Ca++ Flux Assay (agonist mode, FDSS 7000EX); format: cell-based; settings: for M5 FDSS PA: Percent Activity measured to EC100 of Carbachol; for EC50: agonist mode, geometric mean if tested more than once, read-out: M5 FDSS EC50
T2 construct: expressed in transfected cells; host or cells: CHO (M5_CHO)
T2 sequence (P08912 1-532): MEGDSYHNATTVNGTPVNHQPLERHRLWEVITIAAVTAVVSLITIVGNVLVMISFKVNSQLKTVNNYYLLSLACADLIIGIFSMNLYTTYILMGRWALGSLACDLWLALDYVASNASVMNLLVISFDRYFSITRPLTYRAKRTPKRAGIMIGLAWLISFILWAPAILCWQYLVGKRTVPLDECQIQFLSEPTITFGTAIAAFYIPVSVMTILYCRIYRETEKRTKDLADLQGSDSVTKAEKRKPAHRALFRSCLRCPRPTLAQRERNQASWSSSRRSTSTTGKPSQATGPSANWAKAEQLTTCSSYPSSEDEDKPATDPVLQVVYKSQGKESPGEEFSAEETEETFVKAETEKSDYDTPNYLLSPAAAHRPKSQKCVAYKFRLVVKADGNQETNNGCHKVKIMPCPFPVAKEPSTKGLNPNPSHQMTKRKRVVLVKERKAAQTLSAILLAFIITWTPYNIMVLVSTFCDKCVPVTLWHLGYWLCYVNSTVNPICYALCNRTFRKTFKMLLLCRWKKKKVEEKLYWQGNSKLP
How it was run: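 Fluorescent intracellular Ca++ signal, recorded for 3 min, served as read-out for CHO-K1 cells stably carrying human M3 or M5 receptor. Triplicate 11-point dose responses were averaged and fitted to a four-parameter model, with percent activity referenced to the carbachol EC100.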

SMILES | M2 FDSS PA [1] | M5 FDSS PA [2] | EC50 [2] | EC50 [1]
O=C(N1CC2(CC[C@@H](N3CCC(c4ccccc4OC4CCOCC4)CC3)C2)C1)C1(F)CC1 (single isomer, unassigned) [Example 9F, (R)-(1-fluorocyclopropyl)(6-(4-(2-((tetrahydro-2H-pyran-4-yl)oxy)phenyl)piperidin-1-yl)-2-azaspiro[3.4]octan-2-yl)methanone or (S)-(1-fluorocyclopropyl)(6-(4-(2-((tetrahydro-2H-pyran-4-yl)oxy)phenyl)piperidin-1-yl)-2-azaspiro[3.4]octan-2-yl)methanone] | 0% | 0% | > 25 µM | –
O=C(N1CC2(CC[C@@H](N3CCC(c4ccccc4C4(O)CCOCC4)CC3)C2)C1)C1(F)CC1 (single isomer, unassigned) [Example 9G, (R)-(1-fluorocyclopropyl)(6-(4-(2-(4-hydroxytetrahydro-2H-pyran-4-yl)phenyl)piperidin-1-yl)-2-azaspiro[3.4]octan-2-yl)methanone or (S)-(1-fluorocyclopropyl)(6-(4-(2-(4-hydroxytetrahydro-2H-pyran-4-yl)phenyl)piperidin-1-yl)-2-azaspiro[3.4]octan-2-yl)methanone] | 0% | 0% | > 25 µM | –
O=C(N1CC2(CC[C@@H](N3CCC(c4ccccc4C4(O)CCOCC4)CC3)C2)C1)C1(F)CC1 (single isomer, unassigned) [Example 9H, (R)-(1-fluorocyclopropyl)(6-(4-(2-(4-hydroxytetrahydro-2H-pyran-4-yl)phenyl)piperidin-1-yl)-2-azaspiro[3.4]octan-2-yl)methanone or (S)-(1-fluorocyclopropyl)(6-(4-(2-(4-hydroxytetrahydro-2H-pyran-4-yl)phenyl)piperidin-1-yl)-2-azaspiro[3.4]octan-2-yl)methanone] | 0% | 0% | > 25 µM | –
O=C(N1CC2(CC[C@@H](N3CCC(c4cc(F)ccc4C4(O)CCOCC4)CC3)C2)C1)C1(F)CC1 (single isomer, unassigned) [Example 9I, (R)-(6-(4-(5-fluoro-2-(4-hydroxytetrahydro-2H-pyran-4-yl)phenyl)piperidin-1-yl)-2-azaspiro[3.4]octan-2-yl)(1-fluorocyclopropyl)methanone or (S)-(6-(4-(5-fluoro-2-(4-hydroxytetrahydro-2H-pyran-4-yl)phenyl)piperidin-1-yl)-2-azaspiro[3.4]octan-2-yl)(1-fluorocyclopropyl)methanone] | 0% | 0% | > 25 µM | –
O=C(N1CC2(CC[C@@H](N3CCC(c4cc(F)ccc4C4(O)CCOCC4)CC3)C2)C1)C1(F)CC1 (single isomer, unassigned) [Example 9J, (R)-(6-(4-(5-fluoro-2-(4-hydroxytetrahydro-2H-pyran-4-yl)phenyl)piperidin-1-yl)-2-azaspiro[3.4]octan-2-yl)(1-fluorocyclopropyl)methanone or (S)-(6-(4-(5-fluoro-2-(4-hydroxytetrahydro-2H-pyran-4-yl)phenyl)piperidin-1-yl)-2-azaspiro[3.4]octan-2-yl)(1-fluorocyclopropyl)methanone] | 0% | 0% | > 25 µM | –
O=C(N1CC2(CC[C@@H](N3CCC(c4cc(F)ccc4C4CCOCC4)CC3)C2)C1)C1(F)CC1 (single isomer, unassigned) [Example 9K, (R)-(6-(4-(5-fluoro-2-(tetrahydro-2H-pyran-4-yl)phenyl)piperidin-1-yl)-2-azaspiro[3.4]octan-2-yl)(1-fluorocyclopropyl)methanone or (S)-(6-(4-(5-fluoro-2-(tetrahydro-2H-pyran-4-yl)phenyl)piperidin-1-yl)-2-azaspiro[3.4]octan-2-yl)(1-fluorocyclopropyl)methanone] | 0% | 0% | > 25 µM | –
O=C(N1CC2(CC[C@@H](N3CCC(c4cc(F)ccc4C4CCOCC4)CC3)C2)C1)C1(F)CC1 (single isomer, unassigned) [Example 9L, (R)-(6-(4-(5-fluoro-2-(tetrahydro-2H-pyran-4-yl)phenyl)piperidin-1-yl)-2-azaspiro[3.4]octan-2-yl)(1-fluorocyclopropyl)methanone or (S)-(6-(4-(5-fluoro-2-(tetrahydro-2H-pyran-4-yl)phenyl)piperidin-1-yl)-2-azaspiro[3.4]octan-2-yl)(1-fluorocyclopropyl)methanone] | 0% | 0% | > 25 µM | –
Fc1cncc(N2CC3(CC[C@@H](N4CCC(c5cc(F)ccc5OC5CCOCC5)CC4)C3)C2)c1 (single isomer, unassigned) [Example 10A, (R)-6-(4-(5-fluoro-2-((tetrahydro-2H-pyran-4-yl)oxy)phenyl)piperidin-1-yl)-2-(5-fluoropyridin-3-yl)-2-azaspiro[3.4]octane or (S)-6-(4-(5-fluoro-2-((tetrahydro-2H-pyran-4-yl)oxy)phenyl)piperidin-1-yl)-2-(5-fluoropyridin-3-yl)-2-azaspiro[3.4]octane] | 42% | 0% | > 25 µM | –
Fc1cncc(N2CC3(CC[C@@H](N4CCC(c5cc(F)ccc5OC5CCOCC5)CC4)C3)C2)c1 (single isomer, unassigned) [Example 10B, (R)-6-(4-(5-fluoro-2-((tetrahydro-2H-pyran-4-yl)oxy)phenyl)piperidin-1-yl)-2-(5-fluoropyridin-3-yl)-2-azaspiro[3.4]octane or (S)-6-(4-(5-fluoro-2-((tetrahydro-2H-pyran-4-yl)oxy)phenyl)piperidin-1-yl)-2-(5-fluoropyridin-3-yl)-2-azaspiro[3.4]octane] | 31% | 0% | > 25 µM | 14.4 µM
Fc1ccc(C2CCOCC2)c(C2CCN([C@@H]3CCC4(C3)CN(c3cncnc3)C4)CC2)c1 (single isomer, unassigned) [Example 10C, (R)-6-(4-(5-fluoro-2-(tetrahydro-2H-pyran-4-yl)phenyl)piperidin-1-yl)-2-(pyrimidin-5-yl)-2-azaspiro[3.4]octane or (S)-6-(4-(5-fluoro-2-(tetrahydro-2H-pyran-4-yl)phenyl)piperidin-1-yl)-2-(pyrimidin-5-yl)-2-azaspiro[3.4]octane] | 30% | 0% | > 25 µM | 0.035 µM
Fc1ccc(C2CCOCC2)c(C2CCN([C@@H]3CCC4(C3)CN(c3cncnc3)C4)CC2)c1 (single isomer, unassigned) [Example 10D, (R)-6-(4-(5-fluoro-2-(tetrahydro-2H-pyran-4-yl)phenyl)piperidin-1-yl)-2-(pyrimidin-5-yl)-2-azaspiro[3.4]octane or (S)-6-(4-(5-fluoro-2-(tetrahydro-2H-pyran-4-yl)phenyl)piperidin-1-yl)-2-(pyrimidin-5-yl)-2-azaspiro[3.4]octane] | 11% | 0% | > 25 µM | 0.506 µM
